Assay results as given in publication PMC8776995 (Frontiers in Chemistry, 2022).
Where “and” joins values, the source holds several entries; their conditions need not be identical. Equal entries are not always repeated.

Columns and labels:
wild-type EGFR = wild-type EGFR (Homo sapiens, UniProt P00533); test: EGFR kinase assay (ELISA); details: for A450: raw ELISA absorbance
A549 cells = test: CCK-8 antiproliferation assay, A549; details: for Inhibitory efficacy: A549 cells
Method: (§1) The compounds were dissolved in DMSO to make a 20 μM stock solution and diluted to the concentration of working solutions with complete growth medium before administration.
(§2) Cells were seeded in 96-well plates: 3,000–5,000 cells/well in 100 ul. One day after seeding, the test compounds at concentration between 1.0 and 16.0 μ M or 0.1% DMSO (as control) were added to cells in triplicate. 48 h later, CCK-8 was added and incubated the plate for 1–4 h in the incubator. The absorbance at 450 nm were measured using a microplate reader (Bio-Tek).

H460 cells = test: CCK-8 antiproliferation assay, H460; details: for Inhibitory efficacy: H460 cells
H1975 cells = test: CCK-8 antiproliferation assay, H1975; details: for Inhibitory efficacy: H1975 cells
Method: as §1, §2

PC-9 cells = test: CCK-8 antiproliferation assay, PC-9; details: for Inhibitory efficacy: single repeats (Repeat 1-3), given as fraction
[1] = 1uM, given as fraction, Repeat 1-3
[2] = 2uM, given as fraction, Repeat 1-3
[3] = 4uM, given as fraction, Repeat 1-3
[4] = 8uM, given as fraction, Repeat 1-3
[5] = 16uM, given as fraction, Repeat 1-3

Sequence of wild-type EGFR (P00533 25-1210): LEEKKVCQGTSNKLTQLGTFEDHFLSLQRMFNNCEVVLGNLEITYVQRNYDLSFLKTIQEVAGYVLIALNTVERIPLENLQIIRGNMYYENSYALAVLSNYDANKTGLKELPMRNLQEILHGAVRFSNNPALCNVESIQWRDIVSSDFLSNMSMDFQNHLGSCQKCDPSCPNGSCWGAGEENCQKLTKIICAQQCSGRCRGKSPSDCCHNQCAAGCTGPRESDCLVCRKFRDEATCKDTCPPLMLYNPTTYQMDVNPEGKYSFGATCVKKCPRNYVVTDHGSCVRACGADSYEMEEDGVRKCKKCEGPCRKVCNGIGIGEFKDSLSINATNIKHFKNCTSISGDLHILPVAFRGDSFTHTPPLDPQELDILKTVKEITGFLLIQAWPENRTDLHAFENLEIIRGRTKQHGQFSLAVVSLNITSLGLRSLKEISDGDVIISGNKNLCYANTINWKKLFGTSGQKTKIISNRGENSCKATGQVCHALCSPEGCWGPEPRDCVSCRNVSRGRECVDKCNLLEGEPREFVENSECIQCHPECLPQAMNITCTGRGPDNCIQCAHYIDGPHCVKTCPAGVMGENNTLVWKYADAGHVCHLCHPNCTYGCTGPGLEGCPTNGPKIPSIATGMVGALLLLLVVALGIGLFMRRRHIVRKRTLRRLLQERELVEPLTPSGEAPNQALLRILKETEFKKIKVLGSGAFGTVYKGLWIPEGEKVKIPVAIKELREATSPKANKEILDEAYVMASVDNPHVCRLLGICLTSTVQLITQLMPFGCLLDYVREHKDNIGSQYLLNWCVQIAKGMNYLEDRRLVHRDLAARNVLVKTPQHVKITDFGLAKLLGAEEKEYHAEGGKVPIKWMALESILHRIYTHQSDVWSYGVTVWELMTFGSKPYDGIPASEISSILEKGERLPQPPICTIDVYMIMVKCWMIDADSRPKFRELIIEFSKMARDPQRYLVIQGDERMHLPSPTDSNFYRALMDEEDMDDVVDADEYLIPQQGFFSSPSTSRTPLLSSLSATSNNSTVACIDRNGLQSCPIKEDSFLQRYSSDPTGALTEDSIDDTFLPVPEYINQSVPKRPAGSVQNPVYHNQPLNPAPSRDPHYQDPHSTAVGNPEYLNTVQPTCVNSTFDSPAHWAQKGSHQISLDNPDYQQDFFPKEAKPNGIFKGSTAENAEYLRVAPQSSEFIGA

inhibition at 100 fM (wild-type EGFR; concentration 0.0001 nM (reference for normalisation), one value per replicate column): 0%
inhibition at 30 pM (wild-type EGFR; concentration 0.03 nM, one value per replicate column): 5.9%
Inhibition (wild-type EGFR; concentration 0.03 nM, one value per replicate column, 3e-05 µM): 7.547
inhibition at 0.0003 µM (wild-type EGFR; concentration 0.3 nM, one value per replicate column): 9.63%
Inhibition (wild-type EGFR; concentration 0.3 nM, one value per replicate column, 0.0003 µM): 10.2916
inhibition at 0.003 µM (wild-type EGFR; concentration 3 nM, one value per replicate column): 16.9%
Inhibition (wild-type EGFR; concentration 3 nM, one value per replicate column, 0.003 µM): 12.693
inhibition at 0.03 µM (wild-type EGFR; concentration 30 nM, one value per replicate column): 21.1%
Inhibition (wild-type EGFR; concentration 30 nM, one value per replicate column, 0.03 µM): 13.2075
inhibition at 0.3 µM (wild-type EGFR; concentration 300 nM, one value per replicate column): 25.3%
Inhibition (wild-type EGFR; concentration 300 nM, one value per replicate column, 0.3 µM): 17.1527
inhibition at 3 µM (wild-type EGFR; concentration 3000 nM, one value per replicate column): 26.1%
Inhibition (wild-type EGFR; concentration 3000 nM, one value per replicate column, 3 µM): 22.2985
inhibition at 30 µM (wild-type EGFR; concentration 30000 nM, one value per replicate column): 68.9%
Inhibition (wild-type EGFR; concentration 30000 nM, one value per replicate column, 30 µM): 69.1252
A450 (wild-type EGFR; concentration 0.0001 nM): 0.879 and 0.798
A450 (wild-type EGFR; concentration 0.03 nM): 0.841 and 0.754
A450 (wild-type EGFR; concentration 0.3 nM): 0.817 and 0.738
A450 (wild-type EGFR; concentration 3 nM): 0.77 and 0.724
A450 (wild-type EGFR; concentration 30 nM): 0.743 and 0.721
A450 (wild-type EGFR; concentration 300 nM): 0.716 and 0.698
A450 (wild-type EGFR; concentration 3000 nM): 0.711 and 0.668
A450 (wild-type EGFR; concentration 30000 nM): 0.435 and 0.395
IC50 (wild-type EGFR; read-out: IC50 (μM) EGFR, ELISA, 3 μmol/L ATP): 12.4 µM
IC50 (A549 cells; Homo sapiens, A549, 48 h, read-out: IC50 (μM) A549, CCK-8, 48 h, average ± SD of three independent experiments): 2.53 ± 0.2 µM
IC50 (H460 cells; Homo sapiens, NCI-H460, 48 h, read-out: IC50 (μM) H460, CCK-8, 48 h, average ± SD of three independent experiments): 4.3 ± 0.62 µM
IC50 (H1975 cells; Homo sapiens, NCI-H1975, 48 h, read-out: IC50 (μM) H1975, CCK-8, 48 h, average ± SD of three independent experiments): 10 ± 0.69 µM
IC50 (PC-9 cells; Homo sapiens, PC-9, 48 h, read-out: IC50 (μM) PC-9): 15.2 ± 0.75 µM
melting point: 100 to 103 °C
Structure (SMILES): COCCOc1cc2ncnc(Nc3cccc(-c4cn(-c5ccc(C)cc5O)nn4)c3)c2cc1OCCOC [e18, 2-(4-{3-[6,7-Bis-(2-methoxy-ethoxy)-quinazolin-4-ylamino]-phenyl}-[1,2,3]triazol-1-yl)-5-methyl-phenol]
Inhibitory efficacy (A549 cells; [1]): 0.3234 and 0.3188
Inhibitory efficacy (A549 cells; [2]): 0.4627 and 0.499
Inhibitory efficacy (A549 cells; [3]): 0.5875 and 0.5347
Inhibitory efficacy (A549 cells; [4]): 0.7578 and 0.7459
Inhibitory efficacy (A549 cells; [5]): 0.8733 and 0.8713
inhibition at 1 µM (A549 cells; Homo sapiens, A549, read-out: Inhibitory efficacy, A549 cells, 1uM, given as fraction, Repeat 1-3): 24.6%
inhibition at 2 µM (A549 cells; Homo sapiens, A549, read-out: Inhibitory efficacy, A549 cells, 2uM, given as fraction, Repeat 1-3): 37.2%
inhibition at 4 µM (A549 cells; Homo sapiens, A549, read-out: Inhibitory efficacy, A549 cells, 4uM, given as fraction, Repeat 1-3): 66.7%
inhibition at 8 µM (A549 cells; Homo sapiens, A549, read-out: Inhibitory efficacy, A549 cells, 8uM, given as fraction, Repeat 1-3): 73.2%
inhibition at 16 µM (A549 cells; Homo sapiens, A549, read-out: Inhibitory efficacy, A549 cells, 16uM, given as fraction, Repeat 1-3): 88.9%
Inhibitory efficacy (H460 cells; [1]): 0.2332 and 0.2742
Inhibitory efficacy (H460 cells; [2]): 0.4443 and 0.3282
Inhibitory efficacy (H460 cells; [3]): 0.5163 and 0.5814
Inhibitory efficacy (H460 cells; [4]): 0.5774 and 0.6654
Inhibitory efficacy (H460 cells; [5]): 0.7445 and 0.6414
inhibition at 1 µM (H460 cells; Homo sapiens, NCI-H460, read-out: Inhibitory efficacy, H460 cells, 1uM, given as fraction, Repeat 1-3): 17.1%
inhibition at 2 µM (H460 cells; Homo sapiens, NCI-H460, read-out: Inhibitory efficacy, H460 cells, 2uM, given as fraction, Repeat 1-3): 27.5%
inhibition at 4 µM (H460 cells; Homo sapiens, NCI-H460, read-out: Inhibitory efficacy, H460 cells, 4uM, given as fraction, Repeat 1-3): 55.5%
inhibition at 8 µM (H460 cells; Homo sapiens, NCI-H460, read-out: Inhibitory efficacy, H460 cells, 8uM, given as fraction, Repeat 1-3): 55%
inhibition at 16 µM (H460 cells; Homo sapiens, NCI-H460, read-out: Inhibitory efficacy, H460 cells, 16uM, given as fraction, Repeat 1-3): 72.3%
Inhibitory efficacy (H1975 cells; [1]): 0.2067 and 0.1552
Inhibitory efficacy (H1975 cells; [2]): 0.2381 and 0.2095
Inhibitory efficacy (H1975 cells; [3]): 0.3038 and 0.341
Inhibitory efficacy (H1975 cells; [4]): 0.4524 and 0.4681
Inhibitory efficacy (H1975 cells; [5]): 0.6095 and 0.6024
inhibition at 1 µM (H1975 cells; Homo sapiens, NCI-H1975, read-out: Inhibitory efficacy, H1975 cells, 1uM, given as fraction, Repeat 1-3): 16.5%
inhibition at 2 µM (H1975 cells; Homo sapiens, NCI-H1975, read-out: Inhibitory efficacy, H1975 cells, 2uM, given as fraction, Repeat 1-3): 26.2%
inhibition at 4 µM (H1975 cells; Homo sapiens, NCI-H1975, read-out: Inhibitory efficacy, H1975 cells, 4uM, given as fraction, Repeat 1-3): 33.4%
inhibition at 8 µM (H1975 cells; Homo sapiens, NCI-H1975, read-out: Inhibitory efficacy, H1975 cells, 8uM, given as fraction, Repeat 1-3): 46.7%
inhibition at 16 µM (H1975 cells; Homo sapiens, NCI-H1975, read-out: Inhibitory efficacy, H1975 cells, 16uM, given as fraction, Repeat 1-3): 55.4%
inhibition at 8 µM (PC-9 cells; Homo sapiens, PC-9, read-out: Inhibitory efficacy, PC-9, 8uM, single repeats (Repeat 1-3), given as fraction): 25.2%
inhibition at 16 µM (PC-9 cells; Homo sapiens, PC-9, read-out: Inhibitory efficacy, PC-9, 16uM, single repeats (Repeat 1-3), given as fraction): 48.5%
Inhibitory efficacy (PC-9 cells; PC-9, 8uM, 8 µM): 0.3051 and 0.2654
Inhibitory efficacy (PC-9 cells; PC-9, 16uM, 16 µM): 0.5238 and 0.4787
